Experimental data taken from article PMC7318222, “A Family of Water‐Immiscible, Dipolar Aprotic, Diamide Solvents from Succinic Acid” (Chemsuschem, 2020).

Biological target: T1, PR (Homo sapiens, UniProt P06401)
T1 construct: expression construct for the full-length human receptor under investigation; expressed in transfected cells; host or cells: human U2-OS cells (ATCC HTB-96), stably transfected
T1 sequence (P06401 1-933): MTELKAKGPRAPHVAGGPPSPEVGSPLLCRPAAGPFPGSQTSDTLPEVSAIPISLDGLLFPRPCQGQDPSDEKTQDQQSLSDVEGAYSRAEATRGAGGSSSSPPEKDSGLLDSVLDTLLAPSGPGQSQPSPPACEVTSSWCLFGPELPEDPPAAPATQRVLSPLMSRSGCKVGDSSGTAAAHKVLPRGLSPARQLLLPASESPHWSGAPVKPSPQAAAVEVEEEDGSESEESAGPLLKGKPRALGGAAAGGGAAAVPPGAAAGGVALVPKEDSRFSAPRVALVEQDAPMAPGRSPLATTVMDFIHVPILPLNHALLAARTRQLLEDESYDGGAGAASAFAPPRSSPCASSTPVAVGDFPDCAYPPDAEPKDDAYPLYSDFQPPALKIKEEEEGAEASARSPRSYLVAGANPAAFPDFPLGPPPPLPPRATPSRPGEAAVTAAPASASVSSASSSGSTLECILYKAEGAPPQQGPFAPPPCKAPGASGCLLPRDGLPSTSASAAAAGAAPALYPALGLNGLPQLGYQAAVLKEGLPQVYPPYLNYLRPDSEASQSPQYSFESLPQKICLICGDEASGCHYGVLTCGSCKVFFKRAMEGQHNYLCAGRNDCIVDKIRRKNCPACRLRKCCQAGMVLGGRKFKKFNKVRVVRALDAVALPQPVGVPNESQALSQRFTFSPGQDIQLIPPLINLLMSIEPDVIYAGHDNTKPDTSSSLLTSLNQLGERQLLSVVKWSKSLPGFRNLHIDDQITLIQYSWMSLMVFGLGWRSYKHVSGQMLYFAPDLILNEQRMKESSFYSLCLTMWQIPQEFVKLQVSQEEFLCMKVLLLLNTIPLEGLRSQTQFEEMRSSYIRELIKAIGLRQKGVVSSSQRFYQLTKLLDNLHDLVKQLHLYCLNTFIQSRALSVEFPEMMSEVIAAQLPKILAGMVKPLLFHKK
Experiment: PR-anti CALUX reporter gene assay (antagonistic mode)
Type: cell-based
Set-up: key: –: no effect observed up to the highest test concentration
Conditions: PC20, 24 h exposure
Excerpt: 99.8% (anhydrous), 4-nitroaniline ≥99.0%, 1-octanol ≥99.0%, diglyme ≥99.0%, DMSO-d6 (99.8% D) and chloroform-d (99.8% D) were purchased from Sigma-Aldrich. Toluene ≥99.0%, hexane ≥99.5%, DCM ≥99.5%, chloroform ≥99.5%, DMSO ≥99.0% were purchased from VWR. N,N-diethyl-4-nitroaniline ≥98.0% was purchased from Alfa Aeser. Cyrene was supplied by Circa group. N-butylpyrrolidinone was supplied by Eastman chemicals. N,N-dimethylformamide 99.9% and N,N-dimethylacetamide 99.9% were purchased from Fischer. The flakes of Ultrason® E3020 P Polyarylethersulfone of 55,000 Da were obtained from INGE.BASF, Germany. The CALUX cell lines have been described previously.[1] They are based on human U2-OS cells (ATCC, HTB-96) stably transfected with an expression construct for the full-length human receptor under investigation, and a reporter construct consisting of multimerized responsive elements for the cognate receptor coupled to a minimal promoter element (TATA) and a luciferase gene. Cells were maintained as described previously,[2] using cell culture media and supplements from Fisher Scientific as described in the experimental procedures section. […]
In vitro reporter gene assays
The automated CALUX assays were carried out similarly as described earlier,[12] with some adaptations. In brief, the assay was performed in CO2 independent medium (Fisher Scientific, […]
supplement (Fisher Scientific, 11574466), 10 U/mL penicillin and 10 µg/mL streptomycin. A cell suspension in assay medium was made of 1 × 10^5cells/mL, and white 384-wells plates were seeded with 30 µl cell suspension/well. After 24 h, exposure medium was prepared. A dilution series in 0.5log unit increments of each test compound (in DMSO) was added to a 96-wells plate containing assay medium (2% v/v). Of this exposure mixture, 30 µl was added to the assay plates containing the CALUX cells, resulting in a final DMSO concentration of 1%. Additionally, DMSO blanks and a full dose response curve of the relevant reference compound were included on each plate. All samples were tested in triplicate. The preparation of the compound dilution series as well as the exposure of the cells were performed on a Hamilton StarLET liquid handling robot coupled to a Cytomat incubator.
Directly after exposure, plates were sealed with non-breathing plate seals (Plate sealer, easy seal transparent; Greiner-Bio-One, 676001). After 24 h the exposure medium was removed using an EL406 washer-dispenser (BioTek) and 10 µl/well triton lysisbuffer was added by the EL406.
Subsequently, the luciferase signal was measured in a luminometer (InfinitePro coupled to a Connect Stacker, both TECAN). In order to be able to detect receptor antagonism, several assays were also performed in antagonistic mode. The assay procedure was as described above, with the only exception that the EC50 concentration of the reference agonist was present during the exposure.
The luminometer data was analysed as follows; the average of the triplicate wells was determined, and the average blank (DMSO) value was subtracted. […] For antagonist- and cytotoxicity experiments, PC20 values were determined instead, which was defined as the concentration where the test compound causes a 20% decrease in the basal signal, which was […]
curve, the signal induction above background (DMSO) was determined, and the concentration where the compound elicited a 1.5-fold increase above background was used as LEC.

LEC PR‐anti, –:
CCCCN(CC)C(=O)CCC(=O)N(CC)CCCC [EBSA, N,N′‐diethyl‐N,N′‐dibutylsuccindiamide]
CCCCN(C)C(=O)CCC(=O)N(C)CCCC [MBSA, N,N′‐dimethyl‐N,N′‐dibutylsuccindiamide]
CCCCN1CCCC1=O [NBP, N‐Butylpyrrolidinone, reference compound]
CN1CCCC1=O [NMP, N‐methyl‐2‐pyrrolidone, reference compound]
CCCCN(CCCC)C(=O)CCC(=O)N(CCCC)CCCC [TBSA, N,N,N′,N′‐tetrabutylsuccindiamide]
